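Protocol summary: plate cells (96-well), add compound at 5 concentrations, incubate 48 h, interpolate endpoints linearly. Here, GI50 denotes the concentration required for 50% inhibition of growth.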 Activity calls are given as the source filed them. No stated cut-off is given here; in the data, active = GI50 up to about 1.1 µM and inactive = higher.
Key:
Experiment in all cases: NCI anticancer screen, dose series, 48 h
[1] = system: 786-0
[2] = system: A498
[3] = system: A549
[4] = system: ACHN
[5] = system: CAKI-1
[6] = system: CCRF-CEM
[7] = system: COLO 205
[8] = system: DLD-1
[9] = system: DMS-114
[10] = system: EKVX
[11] = system: HCC 2998
[12] = system: HCT-15
[13] = system: HOP-62
[14] = system: HT-29
[15] = system: IGROV-1
[16] = system: K562
[17] = system: KM-20L2
[18] = system: KM12
[19] = system: LXFL 529
[20] = system: M14
[21] = system: M19-MEL
[22] = system: MOLT-4
[23] = system: Malme-3M
[24] = system: NCI-H23
[25] = system: NCI-H460
[26] = system: NCI-H522
[27] = system: OVCAR-3
[28] = system: OVCAR-4
[29] = system: OVCAR-5
[30] = system: OVCAR-8
[31] = system: RPMI-8226
[32] = system: SF-268
[33] = system: SF-295
[34] = system: SK-MEL-28
[35] = system: SK-MEL-2
[36] = system: SK-MEL-5
[37] = system: SK-OV-3
[38] = system: SN12C
[39] = system: SNB-19
[40] = system: SNB-75
[41] = system: SNB-78
[42] = system: SW-620
[43] = system: TK-10
[44] = system: U-251
[45] = system: UACC-257
[46] = system: UACC-62
[47] = system: UO-31
[48] = system: XF498
[49] = system: DMS-273
[50] = system: HCT-116
[51] = system: HL-60
[52] = system: HOP-18
[53] = system: HOP-92
[54] = system: LOX IMVI
[55] = system: NCI-H226
[56] = system: RXF 393
[57] = system: SF-539
[58] = system: SR

For `COc1ccc(C=C2C(=O)OC(C)(C)OC2=O)cc1OC`, the GI50 [1] was > 100 µM (inactive), the GI50 [2] was > 100 µM (inactive) and the GI50 [3] was > 100 µM (inactive). For the same compound, the GI50 [4] was > 100 µM (inactive), the GI50 [5] was > 100 µM (inactive) and the GI50 [6] was > 100 µM (inactive). The GI50 [7] was > 100 µM (inactive), the GI50 [8] was > 100 µM (inactive) and the GI50 [9] was > 100 µM (inactive). For the same compound, the GI50 [10] was > 100 µM (inactive), the GI50 [11] was > 100 µM (inactive) and the GI50 [12] was over 100 µM. For the same compound, the GI50 [13] was > 100 µM (inactive), the GI50 [14] was > 100 µM (inactive) and the GI50 [15] was > 100 µM (inactive). The GI50 [16] was > 100 µM (inactive), the GI50 [17] was > 100 µM (inactive) and the GI50 [18] was > 100 µM (inactive). The GI50 [19] was > 100 µM (inactive), the GI50 [20] was > 100 µM (inactive) and the GI50 [21] was > 100 µM (inactive). For the same compound, the GI50 [22] was > 100 µM (inactive), the GI50 [23] was > 100 µM (inactive) and the GI50 [24] was > 100 µM (inactive). For the same compound, the GI50 [25] was > 100 µM (inactive), the GI50 [26] was > 100 µM (inactive) and the GI50 [27] was > 100 µM (inactive). For the same compound, the GI50 [28] was > 100 µM (inactive), the GI50 [29] was > 100 µM (inactive) and the GI50 [30] was > 100 µM (inactive). The GI50 [31] was > 100 µM (inactive), the GI50 [32] was > 100 µM (inactive) and the GI50 [33] was > 100 µM (inactive). For the same compound, the GI50 [34] was > 100 µM (inactive), the GI50 [35] was > 100 µM (inactive) and the GI50 [36] was > 100 µM (inactive). For the same compound, the GI50 [37] was > 100 µM (inactive), the GI50 [38] was > 100 µM (inactive) and the GI50 [39] was > 100 µM (inactive). The GI50 [40] was 80.7 µM (inactive), the GI50 [41] was > 100 µM (inactive) and the GI50 [42] was > 100 µM (inactive). For the same compound, the GI50 [43] was > 100 µM (inactive), the GI50 [44] was > 100 µM (inactive) and the GI50 [45] was > 100 µM (inactive). The GI50 [46] was > 100 µM (inactive), the GI50 [47] was > 100 µM (inactive) and the GI50 [48] was > 100 µM (inactive).

`COc1ccc(/N=C(/[N-]n2c(=O)c(C)nn(C)c2=S)N(c2ccc(OC)cc2)c2n[n+]3c(=O)c(C)nn(C)c3s2)cc1` was tested, and the GI50 [1] was > 100 µM (inactive), the GI50 [2] was 93.3 µM (inactive) and the GI50 [3] was > 100 µM (inactive). The GI50 [4] was > 100 µM (inactive), the GI50 [6] was > 100 µM (inactive) and the GI50 [7] was > 100 µM (inactive). For the same compound, the GI50 [8] was > 100 µM (inactive), the GI50 [9] was > 100 µM (inactive) and the GI50 [49] was > 100 µM (inactive). For the same compound, the GI50 [10] was > 100 µM (inactive), the GI50 [50] was > 100 µM (inactive) and the GI50 [12] was over 100 µM. For the same compound, the GI50 [51] was > 100 µM (inactive), the GI50 [52] was > 100 µM (inactive) and the GI50 [13] was > 100 µM (inactive). For the same compound, the GI50 [53] was > 100 µM (inactive), the GI50 [14] was > 100 µM (inactive) and the GI50 [15] was > 100 µM (inactive). For the same compound, the GI50 [16] was > 100 µM (inactive), the GI50 [17] was > 100 µM (inactive) and the GI50 [18] was > 100 µM (inactive). For the same compound, the GI50 [54] was > 100 µM (inactive), the GI50 [19] was > 100 µM (inactive) and the GI50 [20] was > 100 µM (inactive). For the same compound, the GI50 [21] was > 100 µM (inactive), the GI50 [22] was > 100 µM (inactive) and the GI50 [55] was > 100 µM (inactive). For the same compound, the GI50 [24] was > 100 µM (inactive), the GI50 [25] was > 100 µM (inactive) and the GI50 [26] was > 100 µM (inactive). The GI50 [28] was > 100 µM (inactive), the GI50 [29] was > 100 µM (inactive) and the GI50 [30] was > 100 µM (inactive). The GI50 [31] was > 100 µM (inactive), the GI50 [56] was > 100 µM (inactive) and the GI50 [32] was > 100 µM (inactive). The GI50 [33] was > 100 µM (inactive), the GI50 [57] was > 100 µM (inactive) and the GI50 [34] was > 100 µM (inactive). The GI50 [36] was > 100 µM (inactive), the GI50 [38] was > 100 µM (inactive) and the GI50 [39] was > 100 µM (inactive). For the same compound, the GI50 [40] was > 100 µM (inactive), the GI50 [41] was > 100 µM (inactive) and the GI50 [58] was > 100 µM (inactive). The GI50 [42] was > 100 µM (inactive), the GI50 [44] was > 100 µM (inactive) and the GI50 [45] was > 100 µM (inactive). The GI50 [46] was > 100 µM (inactive).

For `O=C(O)c1ccccc1Cc1ccco1`, the GI50 [1] was > 100 µM (inactive), the GI50 [2] was > 100 µM (inactive) and the GI50 [3] was > 100 µM (inactive). For the same compound, the GI50 [4] was > 100 µM (inactive), the GI50 [5] was > 100 µM (inactive) and the GI50 [7] was > 100 µM (inactive). For the same compound, the GI50 [8] was > 100 µM (inactive), the GI50 [9] was > 100 µM (inactive) and the GI50 [49] was > 100 µM (inactive). For the same compound, the GI50 [10] was > 100 µM (inactive), the GI50 [11] was > 100 µM (inactive) and the GI50 [50] was > 100 µM (inactive). The GI50 [12] was over 100 µM, the GI50 [52] was > 100 µM (inactive) and the GI50 [13] was > 100 µM (inactive). The GI50 [53] was > 100 µM (inactive), the GI50 [14] was > 100 µM (inactive) and the GI50 [15] was > 100 µM (inactive). For the same compound, the GI50 [16] was > 100 µM (inactive), the GI50 [17] was > 100 µM (inactive) and the GI50 [18] was > 100 µM (inactive). For the same compound, the GI50 [19] was > 100 µM (inactive), the GI50 [20] was > 100 µM (inactive) and the GI50 [22] was > 100 µM (inactive). For the same compound, the GI50 [23] was > 100 µM (inactive), the GI50 [55] was > 100 µM (inactive) and the GI50 [24] was > 100 µM (inactive). For the same compound, the GI50 [25] was > 100 µM (inactive), the GI50 [26] was > 100 µM (inactive) and the GI50 [27] was > 100 µM (inactive). For the same compound, the GI50 [28] was > 100 µM (inactive), the GI50 [29] was > 100 µM (inactive) and the GI50 [30] was > 100 µM (inactive). The GI50 [31] was > 100 µM (inactive), the GI50 [56] was > 100 µM (inactive) and the GI50 [32] was > 100 µM (inactive). The GI50 [33] was > 100 µM (inactive), the GI50 [57] was > 100 µM (inactive) and the GI50 [35] was > 100 µM (inactive). The GI50 [36] was > 100 µM (inactive), the GI50 [37] was > 100 µM (inactive) and the GI50 [38] was > 100 µM (inactive). The GI50 [39] was > 100 µM (inactive), the GI50 [40] was > 100 µM (inactive) and the GI50 [41] was > 100 µM (inactive). For the same compound, the GI50 [58] was > 100 µM (inactive), the GI50 [42] was > 100 µM (inactive) and the GI50 [43] was > 100 µM (inactive). For the same compound, the GI50 [44] was > 100 µM (inactive), the GI50 [45] was > 100 µM (inactive) and the GI50 [46] was > 100 µM (inactive). For the same compound, the GI50 [47] was > 100 µM (inactive).

Source: ChEMBL document CHEMBL1201862, “PubChem BioAssay data set” (2004)
